Literature values, collected in US20020146694A1, “Functionating genomes with cross-species coregulation” (priority 2001, published 2002).

System: wild type yeast cells
Details: 10 micrograms/ml

In the case of C[C@H]1c2cccc(O)c2C(=O)C2=C(O)[C@]3(O)C(=O)C(C(N)=O)=C(O)[C@@H](N(C)C)[C@@H]3[C@@H](O)[C@@H]21 [doxycycline], the “effect on the growth rate” value is listed as “no significant effect”.
